# Test results from patent publication US10227312B2, “Glucosylceramide synthase inhibitors for the treatment of diseases” (BIOMARIN PHARMACEUTICAL INC., priority 2015, dated 2019).
# Experiments:
# [1] = target: glucosylceramide synthase (GCS) (Canis lupus familiaris, UniProt A0A8I3MXG6); test: GCS Enzymatic Assay (MDCK lysates); assay type: biochemical, canine; details: MDCK cell lysate, C6-NBD-Ceramide, 37° C. for 1 hour, LC/MS; read-out: Assay 1 (Enzyme Assay; MDCK lysates) IC50
# Method: Madin-Darby canine kidney (MDCK) cell lysate was prepared using M-PER Mammalian Protein Extraction Reagent (Thermal Scientific) in the presence of a protease inhibitor cocktail (Roche). Protein concentration was determined using BCA assay kit (Pierce). […] 0.1% DMSO was used as mock treatment or control. The reaction was terminated by adding 100 μL acetonitrile solution and subjected to LC/MS analysis.
# The quantitative analysis of NBD-Ceramide and glucosylceramide was performed on a Shimadzu ultra-fast liquid chromatography (Shimadzu, Japan) coupled with API 4000 triple quadrupole mass spectrometer (Applied Biosystems, Concord, Ontario, Canada). Sample separation was conducted on a Waters Xbridge™ BEH130 C18, 100 mm×4.6 mm i.d, 3.5 μm (Milford, Mass., USA). The mobile phase consisted of water and acetonitrile supplemented with 0.1% formic acid (v/v). The flow rate was 1.0 mL/min. The initial mobile phase was 20% acetonitrile and was ramped in a linear fashion to 50% acetonitrile in 0.4 min. From 0.4 to 1.5 min, the gradient was ramped to 98% acetonitrile, and then was held at […] until 8.0 min. Acetonitrile was reset to 20% in 1.5 min, and maintained until 10.0 min. The total run time was 10.0 min. The MS/MS detection was performed in ESI positive mode. […] The cell lysate was diluted with equal volume of acetonitrile. Aliquots of 50 μL diluted samples were added to 1.5 mL tubes, and 100 μL of acetonitrile containing internal standard (100 ng/mL tolbutamide) were added for protein precipitation. The mixture were vortexed and then centrifuged at 13000 rpm for 10 min. 70 μL of supernatant were mixed with 140 μL of H2O and the final solution were injected for LC/MS/MS analysis and IC50's and/or percent inhibitions calculated.
# K562 cells = test: K562 Cell-Based Assay; details: Homo sapiens, NBD-Ceramide, LCMS, read-out: Assay 2 (Cellular Assay; K562 cells) IC50
# Method: This assay was modified based on the study by Gupta et al. (J. Lipid Res. 2010, 51, 866). K562 cells were seeded into 12-well plates at 3×10^5 cells/well/mL in RPMI-1640 medium with 5% FBS and incubated at 37° C. for 24 h. One μL of a compound described herein at desired concentration (10 mM, 1 mM, 0.1 mM, 0.01 mM, 0.001 mM and 0.0001 mM in DMSO) or DMSO was added into the corresponding well and mixed. Cells were incubated at 37° C. for 4 h. Then 100 μL of RPMI-1640 medium containing 110 μM of NBD-Ceramide, 11% BSA, 5% FBS, and corresponding concentration of a compound described herein was added into each well and mixed. Cells were incubated for additional 0.5 h at 37° C., followed by washing the cells with ice-cold PBS (pH 7.4) twice with centrifugation and resuspended with 50 μL cold PBS+1% Triton X-100. The cell lysate was sonicated for 15 min before adding equal volume of methanol for LCMS analysis. A small aliquot of cell lysate was used to determine protein concentration by BCA assay kit. The HPLC equipment and methods used in Assay 1 were used in this assay as well and IC50's were calculated.
# Chain of glucosylceramide synthase (GCS) (A0A8I3MXG6 1-394): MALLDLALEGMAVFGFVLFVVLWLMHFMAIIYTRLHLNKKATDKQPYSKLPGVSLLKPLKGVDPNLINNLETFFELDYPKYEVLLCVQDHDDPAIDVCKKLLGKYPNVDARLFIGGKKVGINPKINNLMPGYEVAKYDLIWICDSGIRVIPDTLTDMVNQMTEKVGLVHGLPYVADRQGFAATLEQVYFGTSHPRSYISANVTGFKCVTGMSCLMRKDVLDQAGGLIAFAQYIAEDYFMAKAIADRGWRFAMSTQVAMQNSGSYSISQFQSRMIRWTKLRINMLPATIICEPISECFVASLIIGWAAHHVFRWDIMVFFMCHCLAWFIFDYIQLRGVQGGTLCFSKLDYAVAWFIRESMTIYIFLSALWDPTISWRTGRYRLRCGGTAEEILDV
IC50 [1],IC50 (K562 cells),SMILES
10 to 100 nM,≤ 10 nM,"CN(C(=O)C1=NOCc2cc(-c3ccc(F)cc3)ccc21)[C@H](CN1CCC1)[C@H](O)c1ccc(OC2CC2)c(Cl)c1 [Example 21, N-((1R,2R)-3-(azetidin-1-yl)-1-(3-chloro-4-cyclopropoxyphenyl)-1-hydroxypropan-2-yl)-7-(4-fluorophenyl)-N-methyl-1H-benzo[d][1,2]oxazine-4-carboxamide]"
< 10 nM,≤ 10 nM,"O=C(N[C@H](CN1CCCC1)[C@H](O)c1ccc(OC2CC2)c(Cl)c1)C1=NOCc2c1ccc1ccccc21 [Example 22, N-((1R,2R)-1-(3-chloro-4-cyclopropoxyphenyl)-1-hydroxy-3-(pyrrolidin-1-yl)propan-2-yl)-1H-naphtho[2,1-d][1,2]oxazine-4-carboxamide]"
10 to 100 nM,10 to 100 nM,"CC1ON=C(C(=O)N[C@H](CN2CCCC2)[C@H](O)c2ccc(OC3CC3)c(Cl)c2)c2ccc(-c3ccc(F)cc3)cc21 (stereo partly drawn) [Example 24, N-((1R,2R)-1-(3-chloro-4-cyclopropoxyphenyl)-1-hydroxy-3-(pyrrolidin-1-yl)propan-2-yl)-7-(4-fluorophenyl)-1-methyl-1H-benzo[d][1,2]oxazine-4-carboxamide]"
< 10 nM,≤ 10 nM,"O=C(N[C@H](CN1CCCC1)[C@H](O)c1ccc(OC2CC2)cc1)C1=NOCc2c1ccc1ccccc21 [Example 25, N-((1R,2R)-1-(4-cyclopropoxyphenyl)-1-hydroxy-3-(pyrrolidin-1-yl)propan-2-yl)-1H-naphtho[2,1-d][1,2]oxazine-4-carboxamide]"
< 10 nM,≤ 10 nM,"O=C(N[C@H](CN1CCC1)[C@H](O)c1ccc(OC2CC2)c(Cl)c1)C1=NOCc2c1ccc1ccccc21 [Example 26, N-((1R,2R)-3-(azetidin-1-yl)-1-(3-chloro-4-cyclopropoxyphenyl)-1-hydroxypropan-2-yl)-1H-naphtho[2,1-d][1,2]oxazine-4-carboxamide]"

# The next lines start with the compound.
SMILES,IC50 [1],IC50 (K562 cells)
"O=C(N[C@H](CN1CCCC1)[C@H](O)c1ccc(OC2CC2)cc1)C1=NOCc2cc(-c3ccc(Cl)s3)ccc21 [Example 14, 7-(5-chlorothiophen-2-yl)-N-((1R,2R)-1-(4-cyclopropoxyphenyl)-1-hydroxy-3-(pyrrolidin-1-yl)propan-2-yl)-1H-benzo[d][1,2]oxazine-4-carboxamide]",< 10 nM,≤ 10 nM
"CN(C(=O)C1=NOCc2cc(-c3ccc(F)cc3)ccc21)[C@H](CN1CCCC1)[C@H](O)c1ccc(OC2CC2)c(F)c1 [Example 17, N-((1R,2R)-1-(4-cyclopropoxy-3-fluorophenyl)-1-hydroxy-3-(pyrrolidin-1-yl)propan-2-yl)-7-(4-fluorophenyl)-N-methyl-1H-benzo[d][1,2]oxazine-4-carboxamide]",< 10 nM,≤ 10 nM
"CN(C(=O)C1=NOCc2cc(-c3ccc(Cl)s3)ccc21)[C@H](CN1CCCC1)[C@H](O)c1ccc(OC2CC2)c(F)c1 [Example 18, 7-(5-chlorothiophen-2-yl)-N-((1R,2R)-1-(4-cyclopropoxy-3-fluorophenyl)-1-hydroxy-3-(pyrrolidin-1-yl)propan-2-yl)-N-methyl-1H-benzo[d][1,2]oxazine-4-carboxamide]",10 to 100 nM,≤ 10 nM
"CN(C(=O)C1=NOCc2cc(-c3ccc(F)cc3)ccc21)[C@H](CN1CCCC1)[C@H](O)c1ccc(OC2CC2)c(Cl)c1 [Example 19, N-((1R,2R)-1-(3-chloro-4-cyclopropoxyphenyl)-1-hydroxy-3-(pyrrolidin-1-yl)propan-2-yl)-7-(4-fluorophenyl)-N-methyl-1H-benzo[d][1,2]oxazine-4-carboxamide]",10 to 100 nM,≤ 10 nM
"O=C(N[C@H](CN1CCCC1)[C@H](O)c1ccc(OC2CC2)c(Cl)c1)C1=NOCc2cc3ccccc3cc21 [Example 20, N-((1R,2R)-1-(3-chloro-4-cyclopropoxyphenyl)-1-hydroxy-3-(pyrrolidin-1-yl)propan-2-yl)-1H-naphtho[2,3-d][1,2]oxazine-4-carboxamide]",< 10 nM,≤ 10 nM
